Measured values from patent publication US10641778B2, “System and method for analysis of peptide synthesis fidelity” (Roche Sequencing Solutions, Inc., priority 2015, dated 2020).
No end group written: not given here.

Columns and labels:
[1] = tested on: engineered form of the protein streptavidin; assay: Detection of acetic acid contamination of the arginine synthesis reagent: streptavidin signal output on control peptide features; format: binding
Method: In another example according to the present disclosure, a control peptide sequence was used to identify the presence of a contaminant in the arginine synthesis reagent. Preliminarily, it was determined using the methods described herein that the control peptide sequence [N]-GYERPGWKLAG-[C] (SEQ ID NO:19) can be used to detect the presence (or absence) of acetic acid in one or more of the synthesis reagents used to synthesize a population of peptides including the control peptide sequence GYERPGWKLAG (SEQ ID NO:19). In the present example, peptide sequences were synthesized from the C-terminus to the N-terminus. Using this synthesis scheme, it was determined that the amino acid Pro in the 5th position from the N-terminus of SEQ ID NO:19 is susceptible to acetylation in the presence of acetic acid. Without being limited by theory, it is hypothesized that as the direction of synthesis is from the C-terminus to the N-terminus, instead of addition of the amino acid Arg in the 4th position from the N-terminus following addition of the amino acid Pro in the 5th position, acetic acid was able to form an amino acid bond with the terminal proline.
Moreover, the concentration of acetic acid in a synthesis reagent can be correlated with the signal output characteristic of the interaction of the streptavidin receptor with the control peptide feature (SEQ ID NO:19) or the truncated version thereof (SEQ ID NO:20). […] However, the amino acids at the N-terminus should be selected such that there is a detectable difference in the interaction of streptavidin with the alternative control peptide.
To illustrate the detection of varying concentrations of acetic acid in a peptide synthesis reagent, four different NPPOC-protected arginine reagent solutions were prepared with differing concentrations (volume %) of acetic acid. A first arginine solution included no detectable amount of acetic acid (i.e., about 0.00%), a second arginine solution included 0.03% acetic acid, a third arginine solution included a 0.18% acetic acid, and a fourth arginine solution included 0.38% acetic acid. Four different synthetic peptide populations were synthesized using one of the four arginine solutions, and the signal output characteristic of the interaction of the streptavidin receptor with each of the control peptide features (SEQ ID NO:19) or the truncated versions thereof (SEQ ID NO:20) was determined (FIG. 24). […] In the present example, the raw signal output associated with the arginine reagent solution including 0.03% acetic acid was 1000 units, whereas the signal output associated with the arginine reagent solutions including 0.38% acetic acid was about 30,000 units. […]

streptavidin = streptavidin (Streptomyces avidinii, UniProt P22629); assay: Streptavidin receptor interaction with control peptide features on a peptide array, fluorescence signal (substitution/deletion profiles); format: binding; settings: raw fluorescence signal of streptavidin interaction with control peptide; variants at 6th position from N-terminus (FIG. 8A)
Sequence of streptavidin (P22629 25-183, species assumed): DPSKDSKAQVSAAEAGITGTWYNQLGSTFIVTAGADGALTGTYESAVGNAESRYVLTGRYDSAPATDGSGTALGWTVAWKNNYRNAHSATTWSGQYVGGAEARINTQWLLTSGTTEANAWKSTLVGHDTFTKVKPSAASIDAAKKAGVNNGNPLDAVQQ
From the text: A number of receptor molecules 616 are shown as interacting with the peptide feature 606. Interaction of the receptor molecules 616 with the peptide feature 606 can include binding, catalysis of (or participation in) a reaction including peptides within the peptide feature 606, digestion of the peptides within the feature 606, the like, and combinations thereof. In the present example shown in FIGS. 6A-6C, the receptor 616 was used in the identification of the peptide binder sequence represented by the peptides in the feature 606 (i.e., [N]-Gly-Phe-Glu-Asp-Tyr-Leu-Gly-Glu-Tyr-His-Gly-[C] (SEQ ID NO:1)). […] In one aspect, the interaction of the receptor molecules 616 with the population of peptide features 602 on the peptide array 600 can be detected, for example, by labelling the receptor molecules 616 with a detectable tag 618 (FIG. 6C). […]
In a next step 660 of the method 650, the synthetic peptide population is interrogated in the presence of a receptor having an affinity for the peptide binder sequences encoded by the control peptides. […] Thereafter, in a step 662 of the method 650, an output of the peptide-receptor interaction is detected. […] Accordingly, based on the output detected in the step 662, a step 664 of the method 650 can include assessing the fidelity of amino acid incorporation. […]

## GYERPGWKLAG [GYERPGWKLAG (SEQ ID NO:19), control peptide to detect acetic acid contamination in synthesis reagents]
[1]; acetic acid in arginine reagent raised from 0.03% to 0.38%
  increase in raw signal: 30 fold
[1]; control peptide features (SEQ ID NO:19 or truncated SEQ ID NO:20) synthesized with arginine reagent solution including 0.03% acetic acid (FIG. 24)
  raw signal output: 1000 units
[1]; control peptide features (SEQ ID NO:19 or truncated SEQ ID NO:20) synthesized with arginine reagent solution including 0.38% acetic acid (FIG. 24)
  signal output: about 30,000 units

## GWTHPMFEQKG [GWTHPMFEQKG (SEQ ID NO:2)]
streptavidin
  average raw signal: 18,000 units

## *PGWKLAG (Ac-PGWKLAG) [*PGWKLAG (SEQ ID NO:20), *P is acetylated N-terminal Pro]
[1]; acetylated truncated peptide on array (FIG. 24)
  affinity towards an engineered form of the protein streptavidin: exhibit intrinsic affinity
